Test [1] relates to CCRF-CEM. The test is described as follows: Inhibitory concentration against CEM cell growth after incubation in liquid medium for 72 h. It is filed as functional, cell-based. Particulars: Homo sapiens.
Test [2] deals with CCRF-CEM. The test is described as follows: Ratio of IC50 against CPT-resistant cell line to that of CPT-sensitive cell line expressed as relative resistant index. Type of test: functional, Homo sapiens.
A short description of test [3]: Inhibitory concentration against CEM/C2 cell growth after incubation in liquid medium for 72 h. It is filed as functional, cell-based. As to conditions: Homo sapiens, CEM/C2, 72 h.

Each structure is given as a SMILES string.

`COc1cc(-c2c3c4ccc(O)cc4oc(=O)c3n3ccc4cc(O)c(OC)cc4c23)ccc1O`: the values for the concentration for half-maximal inhibition (IC50) (in the test on CCRF-CEM [1]; in test [3]) were 0.017 µM and 2.74 µM, respectively. Moreover, in the test with CCRF-CEM [2], the RRI came out at 164.

`COc1ccc2oc(=O)c3c(c(-c4ccc(O)c(OC)c4)c4c5cc(OC)c(O)cc5ccn43)c2c1`: the values for the concentration for half-maximal inhibition (IC50) (in the test with CCRF-CEM [1]; in test [3]) were 0.52 µM and 6.25 µM, respectively. For the same molecule, the RRI in the test on CCRF-CEM [2] was 12.

In the case of `COc1cc(-c2c3c4cc(OC)c(O)cc4oc(=O)c3n3ccc4cc(O)c(OC)cc4c23)ccc1O` [LAMELLARIN D], the IC50 in the test with CCRF-CEM [1] came out at 0.005 µM; in test [3] it was 0.72 µM. The RRI with CCRF-CEM [2] was found to be 144.

On to `COc1ccc(-c2c3c4cc5c(cc4oc(=O)c3n3ccc4cc(OC)c(OC)cc4c23)OCO5)cc1OC`, for which the IC50 (in the test with CCRF-CEM [1]; in test [3]) was > 100 µM in each case.

On to `COc1cc2c(cc1O)oc(=O)c1c2c(-c2ccc(OC)c(OC)c2)c2c3cc(OC)c(OC)cc3ccn21`, for which the IC50 with CCRF-CEM [1] is 3.03 µM; in test [3], 5.55 µM. In addition, the RRI in the test on CCRF-CEM [2] is reported as 2.

In the case of `CC(=O)Oc1ccc(-c2c3c4cc(OC(C)=O)c(OC(C)=O)cc4oc(=O)c3n3ccc4cc(OC(C)=O)c(OC(C)=O)cc4c23)cc1OC(C)=O`, the IC50 in the test with CCRF-CEM [1] was 1.95 µM; in test [3], 6.93 µM. For the same molecule, in the test on CCRF-CEM [2], the RRI is 4.

As to `CC[C@@]1(O)C(=O)OCc2c1cc1n(c2=O)Cc2cc3ccccc3nc2-1` [CAMPTOTHECIN], the concentration for half-maximal inhibition (IC50) with CCRF-CEM [1] was found to be 0.00084 µM; in test [3] it was 5.38 µM. In the test with CCRF-CEM [2], the RRI is reported as 6400.

In the case of `COc1cc(-c2c3c4ccccc4oc(=O)c3n3ccc4cc(O)c(OC)cc4c23)ccc1O`, the 50% inhibitory concentration (IC50) with CCRF-CEM [1] is 2.23 µM; in test [3], 11.1 µM. The RRI in the test with CCRF-CEM [2] amounted to 5.

In the case of `O=c1oc2ccccc2c2c(-c3ccc(O)c(O)c3)c3c4cc(O)c(O)cc4ccn3c12`, the IC50 in the test with CCRF-CEM [1] came to 0.43 µM; in test [3], 0.95 µM. The RRI in the test on CCRF-CEM [2] stood at 2.

The values are drawn from ChEMBL document CHEMBL1139528, “Molecular determinants of topoisomerase I poisoning by lamellarins: comparison with camptothecin and structure-activity relationships” (J Med Chem, 2005).
